Test results reported in US7915291B2, “Hepatitis C virus inhibitors” (Bristol-Myers Squibb Company, priority 2002, dated 2011).

Tests used:
[1] = target: T1, HCV NS3/4A protease complex, J4L6S strain (Hepatitis C virus genotype 1b, UniProt O92972, C1454S/C1711G); test: Recombinant HCV NS3/4A protease complex FRET peptide assay (J4L6S strain); assay type: biochemical, HCV genotype 1b
T1 construct: recombinant HCV NS3/4A protease complex (amino acids 1027 to 1711); inferred from pET21b vector and Ni-NTA purification; made in house; host or cells: Escherichia coli BL21 (DE3), pET21b
T1 sequence (O92972 1027-1711 C1454S/C1711G, one chain of several): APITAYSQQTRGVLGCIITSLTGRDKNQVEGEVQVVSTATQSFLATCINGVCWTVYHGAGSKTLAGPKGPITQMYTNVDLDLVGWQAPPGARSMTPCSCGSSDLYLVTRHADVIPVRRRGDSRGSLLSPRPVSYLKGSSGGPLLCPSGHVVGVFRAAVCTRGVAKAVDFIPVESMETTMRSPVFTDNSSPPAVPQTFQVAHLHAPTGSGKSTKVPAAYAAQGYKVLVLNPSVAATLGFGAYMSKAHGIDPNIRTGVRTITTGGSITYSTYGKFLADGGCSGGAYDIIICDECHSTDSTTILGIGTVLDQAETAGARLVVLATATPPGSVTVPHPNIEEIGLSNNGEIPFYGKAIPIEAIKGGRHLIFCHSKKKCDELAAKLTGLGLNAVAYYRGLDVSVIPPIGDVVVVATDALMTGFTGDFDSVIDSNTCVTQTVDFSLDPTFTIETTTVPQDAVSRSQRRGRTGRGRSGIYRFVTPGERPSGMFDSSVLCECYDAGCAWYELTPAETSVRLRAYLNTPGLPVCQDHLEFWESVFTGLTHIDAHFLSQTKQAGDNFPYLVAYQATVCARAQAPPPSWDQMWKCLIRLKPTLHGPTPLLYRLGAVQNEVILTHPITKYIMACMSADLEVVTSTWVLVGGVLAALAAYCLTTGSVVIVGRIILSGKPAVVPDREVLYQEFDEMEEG
Source text: (§1) Recombinant HCV NS3/4A Protease Complex FRET Peptide Assay
(§2) The purpose of this in vitro assay was to measure the inhibition of HCV NS3 protease complexes, derived from the BMS, H77C or J416S strains, as described below, by compounds of the present invention. This assay provides an indication of how effective compounds of the present invention would be in inhibiting HCV proteolytic activity.
(§3) Serum from an HCV-infected patient was obtained from Dr. T. Wright, San Francisco Hospital. An engineered full-length cDNA (compliment deoxyribonucleic acid) template of the HCV genome (BMS strain) was constructed from DNA fragments obtained by reverse transcription-PCR(RT-PCR) of serum RNA (ribonucleic acid) and using primers selected on the basis of homology between other genotype 1a strains. From the determination of the entire genome sequence, a genotype 1a was assigned to the HCV isolate according to the classification of Simmonds et al. (See P Simmonds, Kans. Rose, S Graham, S W Chan, F McOmish, B C Dow, E A Follett, P L Yap and H Marsden, J. Clin. Microbiol., 31(6), 1493-1503 (1993)). […]

[2] = target: T2, HCV NS3/4A protease complex, H77C strain (Hepatitis C virus genotype 1a, UniProt P27958, C1454S); test: Recombinant HCV NS3/4A protease complex FRET peptide assay (H77C strain); assay type: biochemical, HCV genotype 1a
T2 construct: recombinant HCV NS3/4A protease complex (amino acids 1027 to 1711); inferred from pET21b vector and Ni-NTA purification; made in house; host or cells: Escherichia coli BL21 (DE3), pET21b
T2 sequence (P27958 1027-1657 C1454S): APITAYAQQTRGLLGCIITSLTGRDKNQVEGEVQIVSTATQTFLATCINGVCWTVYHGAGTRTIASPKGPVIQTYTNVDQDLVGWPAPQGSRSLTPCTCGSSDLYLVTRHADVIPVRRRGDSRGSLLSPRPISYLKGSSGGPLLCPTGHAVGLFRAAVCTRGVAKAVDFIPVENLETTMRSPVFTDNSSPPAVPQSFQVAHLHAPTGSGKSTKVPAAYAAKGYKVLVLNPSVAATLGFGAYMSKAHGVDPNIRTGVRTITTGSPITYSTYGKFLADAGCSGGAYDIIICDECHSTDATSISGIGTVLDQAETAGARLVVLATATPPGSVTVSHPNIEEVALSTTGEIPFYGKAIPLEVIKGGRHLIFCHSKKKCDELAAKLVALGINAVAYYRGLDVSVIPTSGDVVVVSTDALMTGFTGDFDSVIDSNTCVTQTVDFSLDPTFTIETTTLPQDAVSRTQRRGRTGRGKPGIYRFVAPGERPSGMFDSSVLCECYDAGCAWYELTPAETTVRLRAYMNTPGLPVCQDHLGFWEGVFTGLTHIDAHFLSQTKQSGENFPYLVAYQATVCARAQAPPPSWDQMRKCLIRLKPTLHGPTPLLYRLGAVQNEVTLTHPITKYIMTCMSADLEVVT
T2 sequence (P27958 1658-1714 partner, looked up, stated change not applied): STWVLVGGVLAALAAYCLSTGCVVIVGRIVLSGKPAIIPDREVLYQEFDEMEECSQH
Source text: as §1, §2, §3

`C=C[C@@H]1C[C@]1(NC(=O)[C@@H]1C[C@@H](Oc2nc(C3CC3)cc3ccccc23)CN1C(=O)[C@@H](NC(=O)OC(C)(C)C)C(C)(C)C)C(=O)NS(=O)(=O)C1CC1` [Compound 34] was tested, and the IC50 [1] was 2.9 nM and the IC50 [2] was 3 nM.
